Here are results for six compounds from patent US11466036B2, “Borate of azetidine derivative” (Chia Tai Tianqing Pharmaceutical Group Co., Ltd., priority 2018, dated 2022).

One data set relates to MM1.S cells. Put plainly: In vitro anti-proliferation experiment for MM1.S cells (CellTiter-Glo). It is filed as cell-based. The note with it: Homo sapiens, 48 h, 2 days incubation, 0.3 nM-2000 nM. As to the method:
In Vitro Anti-Proliferation Experiment for MM1.S Cells
In this experiment, the effect of compounds on inhibiting cell proliferation was investigated by determining their effect on cell activity in vitro in the tumor cell line MM1.S.
MM1.S cells were seeded into a black 96-well cell culture plate at a density of 7,000 cells per well, and the plates were then incubated overnight in an incubator at 37° C., 5% CO2 and 100% relative humidity. Test compounds were added to the cell culture wells at a concentration (0.3 nM-2000 nM) and the plate was then put back into the incubator with vehicle control (DMSO added, no test compound) and blank control set. The plate was incubated for 2 days in an incubator at 37° C., 5% CO2 and 100% relative humidity. Samples were processed using a standard method of the Promega CellTiter-Glo luminescence cell activity detection kit (Promega-G7571) and luminescence signals were detected on a SpectraMax i3× of Molecular Devices plate reader. The inhibition rate of the test compound was calculated using the following formula: […]
In general terms: ATP-based viability assays read luminescence as a measure of living cells.

Data set [1] can be described thus: Liver microsomal stability test, mouse. Format: in vitro ADME, CD-1 mice. The note with it: CD-1; mouse (M) liver microsomes; read-out: Liver microsomal stability (T1/2, min). As to the method:
(§1) Experimental Example 2: Liver Microsomal Stability Test for Compounds
(§2) Test compounds were each co-incubated with liver microsomes from CD-1 mice, SD rats, and humans to evaluate the stability of the test compounds.
(§3) Preparation of test compound solution samples: a 10 mM DMSO solution of the example compound (5 μL) was added to a mixed solvent of DMSO (45 μL), methanol and water (450 μL, volume ratio of methanol and water was 1:1) to prepare a 100 μM test compound solution; 50 μL of the 100 μM test compound solution was added to 450 μL of 100 mM potassium phosphate buffer to give a 10 μM test compound solution.
(§4) The 10 μM test compound solution was preincubated with microsomes of three species (human, rat and mouse, respectively) for 10 minutes, and then reduced nicotinamide adenine dinucleotide phosphate (NADPH) regeneration system working solution was added to the incubation plate according to each time point to initiate the reaction, and finally at 0, 5, 10, 20, 30 and 60 minutes, stop solution (100% ACN) was added to the reaction plate to stop the reaction. The test compounds were determined using LC-MS/MS method.
(Liver microsomes are vesicles of endoplasmic reticulum, rich in cytochrome P450 enzymes.)

Data set [2] can be described thus: Liver microsomal stability test, rat. Conditions: SD; rat (R) liver microsomes; read-out: Liver microsomal stability (T1/2, min). Format: in vitro ADME, SD rats. As to the method: as §1, §2, §3, §4
In another data set the test system is MDR1. Put plainly: Cell membrane permeability test on MDR1-MDCK II cells. Format: in vitro ADME. The note with it: dog; for efflux ratio at 150 min, 2 μM: MDCK-MDR1, pH 7.4, Papp B to A/Papp A to B; for Papp A→B at 150 min, 2 μM / Papp B→A at 150 min, 2 μM: MDCK-MDR1, pH=7.4. As to the method:
Experimental Example 3: Cell Membrane Permeability Test for Compounds
Test compounds were evaluated for cell membrane permeability on MDR1-MDCK II cells.
Test compounds (10 mM DMSO solution of compound) were each diluted with transfer buffer (HBSS with 10 mM Hepes, pH=7.4) and formulated into samples at a final concentration of 2 μM, and then bidirectional (A-B and B-A) administration was performed. After administration, the cell plate was incubated for 150 minutes in an incubator at 37° C., 5% CO2 and saturated humidity. After the 150 minutes of incubation, samples were collected and the concentrations of test compounds in the transfer samples were semi-quantitatively determined using LC-MS/MS method.

Data set [3] is described as follows: Liver microsomal stability test, human. It is filed as in vitro ADME. Conditions: human (H) liver microsomes; read-out: Liver microsomal stability (T1/2, min). As to the method:
as §1, §2, §3, §4

Data set [4] in a line: Stability experiment (solid sample in stability boxes, content by HPLC). It is filed as physicochemical. How it is done:
Experimental Example 4: Stability Experiment
About 50 mg of a sample was placed in a clean disposable petri dish and spread into a thin layer. The petri dish was covered with aluminum foil paper which was pricked with several small holes. The sample, in duplicate, was placed in stability boxes of 25° C.±2° C./60% RH±5% RH and 40° C.±2° C./75% RH±5% RH, respectively, and sampled at the planned time points, and the content of the compound was determined using the HPLC method, and the results are shown in Table 9.

Broadly, the IC50 is the concentration at which inhibition is half-maximal. A higher IC50 goes with weaker potency. With `CC(C)C[C@H](NC(=O)CNC(=O)[C@@H]1CCN1c1ccc(C#N)cc1F)B(O)O` (single isomer, unassigned) [Compound 3-7], the IC50 in the data set on MM1.S cells came out at 90.6 nM. In other words, the double-digit nanomolar range.
The efflux ratio is the permeability from basolateral to apical divided by that in the opposite direction, in the common usage. Broadly, the Papp A→B is the apparent permeability from the apical to the basolateral side of a cell layer. Low readings indicate slow passage, high ones fast passage. One may read the Papp B→A as the apparent permeability from the basolateral to the apical side of a cell layer. Turning to `CC(C)C[C@H](NC(=O)CNC(=O)[C@@H]1CCN1c1ccc(F)cc1F)B(O)O` (single isomer, unassigned) [Compound 4-9], the half-life was found to be 67.4 min in data set [1], 43.1 min in data set [2] and 67.4 min in data set [3]. For the same compound, the efflux ratio at 150 min, 2 μM in the data set on MDR1 was 19.3. The same compound had a Papp A→B at 150 min, 2 μM with MDR1 of 0.38 ×10⁻⁶ cm/s. The Papp B→A at 150 min, 2 μM in the data set on MDR1 was 7.32 ×10⁻⁶ cm/s. In addition, in the data set on MM1.S cells, the IC50 worked out at 1 nM.
In the case of `CC(C)C[C@H](NC(=O)CNC(=O)[C@@H]1CCN1c1ccc(F)cc1)B(O)O` [Compound 1-9], the half-life came out at 43.5 min in data set [1], 42.1 min in data set [2] and 74.3 min in data set [3]. For the same compound, in the data set on MM1.S cells, the IC50 stood at 5.8 nM.
Regarding `CC(C)C[C@H](NC(=O)CNC(=O)[C@@H]1CCN1c1ncc(F)cc1F)B(O)O` [Compound 2-8], half-maximal inhibition in the data set with MM1.S cells (IC50) was put at 24 nM.
For `CC(C)C[C@H](NC(=O)CNC(=O)[C@@H]1CCN1c1nc(C(F)(F)F)cs1)B(O)O` [Compound 2-9], the half-life in data set [1] turned out to be 37.7 min. In addition, in data set [2], the half-life amounted to 26.5 min. Further, in the data set on MDR1, the efflux ratio at 150 min, 2 μM amounted to 9.33; the Papp A→B at 150 min, 2 μM was 0.24 ×10⁻⁶ cm/s; the Papp B→A at 150 min, 2 μM worked out at 2.24 ×10⁻⁶ cm/s. For the same compound, the half-life in data set [3] came out at 75 min. For the same compound, in the data set on MM1.S cells, the IC50 amounted to 24.2 nM.
Turning to `CC(C)C[C@H](NC(=O)CNC(=O)[C@@H]1CCN1c1ccc(F)cc1F)B1OC(=O)[C@H](CC(=O)O)O1` [Compound I-1], the IC50 with MM1.S cells came out at 13 nM. Further, the “content of the compound” value in data set [4] (25° C./60% RH, Day 0) stood at 98.6%; in data set [4] (25° C./60% RH, Day 7), 97.8%; in data set [4] (25° C./60% RH, Day 14), 100%; in data set [4] (25° C./60% RH, Day 21), 100%; in data set [4] (25° C./60% RH, Day 28) it was 100%; in data set [4] (40° C./75% RH, Day 0), 98.6%. The “content of the compound” value in data set [4] (40° C./75% RH, Day 7) is listed as 99.1%; in data set [4] (40° C./75% RH, Day 14) it was 98.5%; in data set [4] (40° C./75% RH, Day 21) it was 100%; in data set [4] (40° C./75% RH, Day 28), 100%.
